Measured values taken from patent US12612384B2, “Heterocyclic CYP4A inhibitor compounds and compositions thereof” (MBD CO., LTD., priority 2021, dated 2026).
Read-outs that look alike come from different tables or passages of the source.

Target: T1, CYP4A (Homo sapiens, UniProt Q02928)
T1 construct: purchased; host or cells: bacterial membranes ('bactosome')
T1 sequence (Q02928 5-519): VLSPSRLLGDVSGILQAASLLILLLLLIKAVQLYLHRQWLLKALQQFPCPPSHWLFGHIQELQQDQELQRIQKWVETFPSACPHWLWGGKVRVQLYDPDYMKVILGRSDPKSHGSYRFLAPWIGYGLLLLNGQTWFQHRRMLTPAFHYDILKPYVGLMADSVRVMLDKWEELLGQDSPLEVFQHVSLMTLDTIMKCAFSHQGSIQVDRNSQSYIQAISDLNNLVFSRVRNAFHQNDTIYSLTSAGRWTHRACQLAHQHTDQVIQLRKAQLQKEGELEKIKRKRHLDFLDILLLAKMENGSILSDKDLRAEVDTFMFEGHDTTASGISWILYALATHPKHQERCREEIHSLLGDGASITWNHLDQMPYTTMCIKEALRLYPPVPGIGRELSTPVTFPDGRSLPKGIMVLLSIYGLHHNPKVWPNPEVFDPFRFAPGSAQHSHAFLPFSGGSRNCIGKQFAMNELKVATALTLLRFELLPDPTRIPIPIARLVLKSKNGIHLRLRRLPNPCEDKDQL
Assay: CYP4A enzyme assay (luminescence, Luciferin-ME)
Type: biochemical
Conditions: Compound concentration 5 μM
Method: The CYP4A inhibitory activity of the above compounds of the examples was measured. The reagents used in the experiment were commercially available, and were prepared and used when necessary. The device used for measuring activity was SpectraMax of MOLECULAR DEVICES.
CYP4A bactosome and the compounds to be evaluated (5 μM) were each diluted in assay buffer (100 mM KPO4, 0.1% BSA, 1 mM DTT) and mixed in a 384 well plate (white opaque polystyrene nontreated flat-bottom well), and reaction was carried out at room temperature for 15 minutes. To induce CYP4A reaction, 5 mM Luciferin-ME, NADPH Regeneration system (10× sol. A, 20× sol. B in assay buffer, Cat. Number: V865B, Promega) were sequentially added and mixed, and the reaction was carried out at room temperature for 30 minutes. Then, Luciferin Detection reagent was added thereto and reacted at room temperature for 15 minutes to stop the CYP4A reaction and induce a luminescence reaction. Finally, after measuring the luminescence value using a microplate reader, the inhibition of CYP4A activity by the compounds was evaluated by comparing the luminescence value from each well.

[1] = Greater than 90%, read-out: % Inhibition Greater than 90%
[2] = 70%-90%, read-out: % Inhibition 70%-90%

| inhibition at 5 µM [1] | inhibition at 5 µM [2] | Compound |
| --- | --- | --- |
| > 90% |  | CC(=O)Nc1ccc(S(=O)(=O)N2CCC(C(=O)N3CCN(c4ccnc5ccccc45)CC3)C2)cc1 (centres unmarked) [Example 21, N-(4-((3-(4-(quinolin-4-yl)piperazine-1-carbonyl)pyrrolidin-1-yl)sulfonyl)phenyl)acetamide] |
| > 90% |  | O=C(C1CCN(S(=O)(=O)c2ccc(-c3cccc(O)c3)nc2)C1)N1CCN(c2ccnc3ccccc23)CC1 (centres unmarked) [Example 27, (1-((6-(3-hydroxyphenyl)pyridin-3-yl)sulfonyl)pyrrolidin-3-yl)(4-(quinolin-4-yl)piperazin-1-yl)methanone] |
| > 90% |  | O=C(C1CCN(S(=O)(=O)c2ccc(-c3cccnc3)nc2)C1)N1CCN(c2ccnc3ccccc23)CC1 (centres unmarked) [Example 29, (1-([2,3′-bipyridin]-5-ylsulfonyl)pyrrolidin-3-yl)(4-(quinolin-4-yl)piperazin-1-yl)methanone] |
| > 90% |  | O=C(C1CCN(S(=O)(=O)c2ccc(-c3ccc(O)nc3)cc2)C1)N1CCN(c2ccnc3ccccc23)CC1 (centres unmarked) [Example 34, (1-((4-(6-hydroxypyridin-3-yl)phenyl)sulfonyl)pyrrolidin-3-yl)(4-(quinolin-4-yl)piperazin-1-yl)methanone] |
| > 90% |  | O=C(C1CCN(S(=O)(=O)c2ccc(N3CCOCC3)cc2)C1)N1CCN(c2ccnc3ccccc23)CC1 (centres unmarked) [Example 35, (1-((4-morpholinophenyl)sulfonyl)pyrrolidin-3-yl)(4-(quinolin-4-yl)piperazin-1-yl)methanone] |
|  | 70 to 90% | Cc1ccc(S(=O)(=O)N2CCC(C(=O)N3CCN(c4ccnc5ccccc45)CC3)C2)s1 (centres unmarked) [Example 37, (1-((5-methylthiophen-2-yl)sulfonyl)pyrrolidin-3-yl)(4-(quinolin-4-yl)piperazin-1-yl)methanone] |
| > 90% |  | Cc1nn(C)c(C)c1S(=O)(=O)N1CCC(C(=O)N2CCN(c3ccnc4ccccc34)CC2)C1 (centres unmarked) [Example 38, (4-(quinolin-4-yl)piperazin-1-yl)(1-((1,3,5-trimethyl-1H-pyrazol-4-yl)sulfonyl)pyrrolidin-3-yl)methanone] |
| > 90% |  | Cc1noc(C)c1S(=O)(=O)N1CCC(C(=O)N2CCN(c3ccnc4ccccc34)CC2)C1 (centres unmarked) [Example 39, (1-((3,5-dimethylisoxazol-4-yl)sulfonyl)pyrrolidin-3-yl)(4-(quinolin-4-yl)piperazin-1-yl)methanone] |
| > 90% |  | O=C(C1CCN(S(=O)(=O)c2ncc[nH]2)C1)N1CCN(c2ccnc3ccccc23)CC1 (centres unmarked) [Example 42, (1-((1H-imidazol-2-yl)sulfonyl)pyrrolidin-3-yl)(4-(quinolin-4-yl)piperazin-1-yl)methanone] |

Second part, the compound before the results:

| Compound | inhibition at 5 µM [1] | inhibition at 5 µM [2] |
| --- | --- | --- |
| Cn1cncc1S(=O)(=O)N1CCC(C(=O)N2CCN(c3ccnc4cc(F)ccc34)CC2)C1 (centres unmarked) [Example 14, (4-(7-fluoroquinolin-4-yl)piperazin-1-yl)(1-((1-methyl-1H-imidazol-5-yl)sulfonyl)pyrrolidin-3-yl)methanone] | > 90% |  |
| O=C(C1CCN(S(=O)(=O)c2ccc(-c3cnco3)cc2)C1)N1CCN(c2ccnc3cc(F)ccc23)CC1 (centres unmarked) [Example 15, (4-(7-fluoroquinolin-4-yl)piperazin-1-yl)(1-((4-(oxazol-5-yl)phenyl)sulfonyl)pyrrolidin-3-yl)methanone] | > 90% |  |
| O=C(C1CCN(S(=O)(=O)c2ccc(Br)cc2)C1)N1CCN(c2ccnc3cc(F)ccc23)CC1 (centres unmarked) [Example 16, (1-((4-bromophenyl)sulfonyl)pyrrolidin-3-yl)(4-(7-fluoroquinolin-4-yl)piperazin-1-yl)methanone] |  | 70 to 90% |
| O=C(C1CCN(S(=O)(=O)c2ccc(-c3ccncc3)cc2)C1)N1CCN(c2ccnc3cc(F)ccc23)CC1 (centres unmarked) [Example 17, (4-(7-fluoroquinolin-4-yl)piperazin-1-yl)(1-((4-(pyridin-4-yl)phenyl)sulfonyl)pyrrolidin-3-yl)methanone] | > 90% |  |
| O=C([C@@H]1CCN(S(=O)(=O)c2ccc(-c3ccncc3)cc2)C1)N1CCN(c2ccnc3cc(F)ccc23)CC1 [Example 18, (R)-(4-(7-fluoroquinolin-4-yl)piperazin-1-yl)(1-((4-(pyridin-4-yl)phenyl)sulfonyl)pyrrolidin-3-yl)methanone] | > 90% |  |
| O=C([C@H]1CCN(S(=O)(=O)c2ncn[nH]2)C1)N1CCN(c2ccnc3cc(F)ccc23)CC1 [Example 19, (S)-(1-((1H-1,2,4-triazol-5-yl)sulfonyl)pyrrolidin-3-yl)(4-(7-fluoroquinolin-4-yl)piperazin-1-yl)methanone] | > 90% |  |
| CC(C)(C)c1n[nH]c(S(=O)(=O)N2CCC(C(=O)N3CCN(c4ccnc5cc(F)ccc45)CC3)C2)n1 (centres unmarked) [Example 20, (1-((5-(tert-butyl)-4H-1,2,4-triazol-3-yl)sulfonyl)pyrrolidin-3-yl)(4-(7-fluoroquinolin-4-yl)piperazin-1-yl)methanone] | > 90% |  |
| CC(=O)Nc1ccc(S(=O)(=O)N2CC[C@@H](C(=O)N3CCN(c4ccnc5ccccc45)CC3)C2)cc1 [Example 22, (R)—N-(4-((3-(4-(quinolin-4-yl)piperazine-1-carbonyl)pyrrolidin-1-yl)sulfonyl)phenyl)acetamide] | > 90% |  |
| CC(=O)Nc1ccc(S(=O)(=O)N2CC[C@H](C(=O)N3CCN(c4ccnc5ccccc45)CC3)C2)cc1 [Example 23, (S)—N-(4-((3-(4-(quinolin-4-yl)piperazine-1-carbonyl)pyrrolidin-1-yl)sulfonyl)phenyl)acetamide] | > 90% |  |
| O=C(C1CCN(S(=O)(=O)c2ccc(Cl)nc2)C1)N1CCN(c2ccnc3ccccc23)CC1 (centres unmarked) [Example 24, (1-((6-chloropyridin-3-yl)sulfonyl)pyrrolidin-3-yl)(4-(quinolin-4-yl)piperazin-1-yl)methanone] |  | 70 to 90% |
| O=C(C1CCN(S(=O)(=O)c2ccc(-c3ccccc3)nc2)C1)N1CCN(c2ccnc3ccccc23)CC1 (centres unmarked) [Example 25, (1-((6-phenylpyridin-3-yl)sulfonyl)pyrrolidin-3-yl)(4-(quinolin-4-yl)piperazin-1-yl)methanone] | > 90% |  |
| O=C(C1CCN(S(=O)(=O)c2ccc(-c3ccncc3)nc2)C1)N1CCN(c2ccnc3ccccc23)CC1 (centres unmarked) [Example 26, (1-([2,4′-bipyridin]-5-ylsulfonyl)pyrrolidin-3-yl)(4-(quinolin-4-yl)piperazin-1-yl)methanone] | > 90% |  |
| O=C(C1CCN(S(=O)(=O)c2ccc(-c3ccc(O)cc3)nc2)C1)N1CCN(c2ccnc3ccccc23)CC1 (centres unmarked) [Example 28, (1-((6-(4-hydroxyphenyl)pyridin-3-yl)sulfonyl)pyrrolidin-3-yl)(4-(quinolin-4-yl)piperazin-1-yl)methanone] | > 90% |  |
| CC(=O)Nc1ccc(S(=O)(=O)N2CCC(C(=O)N3CCN(c4ccnc5ccccc45)CC3)C2)cn1 (centres unmarked) [Example 30, N-(5-((3-(4-(quinolin-4-yl)piperazine-1-carbonyl)pyrrolidin-1-yl)sulfonyl)pyridin-2-yl)acetamide] | > 90% |  |
| O=C(C1CCN(S(=O)(=O)c2ccc(Br)cc2)C1)N1CCN(c2ccnc3ccccc23)CC1 (centres unmarked) [Example 31, (1-((4-bromophenyl)sulfonyl)pyrrolidin-3-yl)(4-(quinolin-4-yl)piperazin-1-yl)methanone] |  | 70 to 90% |
| O=C(C1CCN(S(=O)(=O)c2ccc(-c3cccnc3)cc2)C1)N1CCN(c2ccnc3ccccc23)CC1 (centres unmarked) [Example 32, (1-((4-(pyridin-3-yl)phenyl)sulfonyl)pyrrolidin-3-yl)(4-(quinolin-4-yl)piperazin-1-yl)methanone] | > 90% |  |
| Cc1ncc(-c2ccc(S(=O)(=O)N3CCC(C(=O)N4CCN(c5ccnc6ccccc56)CC4)C3)cc2)cn1 (centres unmarked) [Example 33, (1-((4-(2-methylpyrimidin-5-yl)phenyl)sulfonyl)pyrrolidin-3-yl)(4-(quinolin-4-yl)piperazin-1-yl)methanone] | > 90% |  |
| O=C(C1CCN(S(=O)(=O)c2cccs2)C1)N1CCN(c2ccnc3ccccc23)CC1 (centres unmarked) [Example 36, (4-(quinolin-4-yl)piperazin-1-yl)(1-(thiophen-2-ylsulfonyl)pyrrolidin-3-yl)methanone] |  | 70 to 90% |
| Cc1nc(C)c(S(=O)(=O)N2CCC(C(=O)N3CCN(c4ccnc5ccccc45)CC3)C2)s1 (centres unmarked) [Example 40, (1-((2,4-dimethylthiazol-5-yl)sulfonyl)pyrrolidin-3-yl)(4-(quinolin-4-yl)piperazin-1-yl)methanone] | > 90% |  |
| O=C(C1CCN(S(=O)(=O)c2ccc(C(F)(F)F)cn2)C1)N1CCN(c2ccnc3ccccc23)CC1 (centres unmarked) [Example 41, (4-(quinolin-4-yl)piperazin-1-yl)(1-((5-(trifluoromethyl)pyridin-2-yl)sulfonyl)pyrrolidin-3-yl)methanone] |  | 70 to 90% |
